Laboratory results reported in PubChem BioAssay AID2742 (NMMLSC, 2010).
Active and inactive are the calls of the source.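 The calls were made as follows: active = fitted half-maximal concentration for changing background-corrected GFP signal at or below a set limit; inactive = the rest.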

Assay: TOR pathway reporter MEP2-GFP, concentration series – S. cerevisiae, flow cytometry GFP, MLPCN hits, dose response (AID 2742);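 also: GFP tag reports level of MEP2 protein as a downstream target of TOR signalling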
Details: S. cerevisiae MEP2-GFP strain, flow cytometry fluorescence, 3 h; at 33 µM (top of the series)

| SMILES | GFP fluorescence (kMESF), higher = increase |
| --- | --- |
| Clc1cccc(CN2COc3c(cc(Cl)c4cccnc34)C2)c1 | 8.07 kMESF (inactive) |
| O=C(Nc1cccc(-c2csc(Nc3ccccc3)n2)c1)c1ccccc1 | 2.61 kMESF (inactive) |
| Oc1ccc(Br)cc1/C=N/Nc1ccccn1 | 3.94 kMESF (inactive) |
| Cc1[nH]n(-c2ccccc2)c(=O)c1C(c1ccccc1[N+](=O)[O-])C(C#N)C#N (stereo not given) | 4.8 kMESF (inactive) |
| Cc1cccc(/C=C/C(=O)c2ccc([N+](=O)[O-])o2)c1 | 5.78 kMESF (inactive) |
| O=C1ON=C(c2ccccc2)/C1=C/c1ccco1 | 4.24 kMESF (inactive) |
| Cc1ccccc1[C@]1(C)ON(c2ccccc2C(F)(F)F)C1=O | 2.17 kMESF (inactive) |
| O=C1c2cccc3c([N+](=O)[O-])ccc(c23)C(=O)N1c1ccccn1 | 12.2 kMESF (inactive) |
| O=[N+]([O-])c1c(Nc2ccccn2)cc(Cl)c2nonc12 | 21.3 kMESF (inactive) |
| COc1ccc(N=Cc2nc(-c3ccccc3)oc2OC(=O)c2ccccc2)cc1 | 2.68 kMESF (inactive) |
| CC(c1ccccc1)N1C(=O)/C(=C/c2ccncc2)SC1=S (stereo not given) | 2.87 kMESF (inactive) |
| COc1ccccc1C(=O)NNC(=S)NC(=O)c1ccco1 | 3.64 kMESF (inactive) |
| O=[N+]([O-])c1cc(CN2CCN(c3ccccc3)CC2)c(O)c2ncccc12 | 4.24 kMESF (inactive) |
| Cc1ccc(NC(=O)c2cc(N3C(=O)C=CC3=O)ccc2N2CCOCC2)cc1Cl | 1.96 kMESF (inactive) |
| CC(C)[C@]1(c2ccc(Cl)cc2)ON(c2ccccc2C(F)(F)F)C1=O | 2.37 kMESF (inactive) |
| O=[N+]([O-])c1cc(S(=O)(=O)C(F)(F)F)ccc1Sc1nc2ccccc2s1 | 4.67 kMESF (inactive) |
| O=C1CC(c2ccccc2)=NN1c1nc(-c2ccccc2)cs1 | 2.83 kMESF (inactive) |
| CCSc1nnc(NC(=O)c2ccccn2)s1 | 4.39 kMESF (inactive) |
| O=C(O)C1Sc2[nH]c(=O)sc2C2c3cc(Br)ccc3OC(=O)C12 (stereo not given) | 4.8 kMESF (inactive) |
| O=C(NNC(=S)NC(=O)c1ccco1)c1ccc(F)cc1 | 4.11 kMESF (inactive) |
| CCCCC1OC23CCCCC2C(C#N)(C(=N)O3)C1(C#N)C#N (stereo not given) | 3.37 kMESF (inactive) |
| Cc1ccccc1[C@@]1(C)ON(c2ccccc2C(F)(F)F)C1=O | 3.31 kMESF (inactive) |

| SMILES | GFP fluorescence (kMESF), higher = increase |
| --- | --- |
| O=C(NC(=S)NNC(=O)[C@H]1C[C@@H]1c1ccccc1)c1cccc(F)c1 | 7.02 kMESF (inactive) |
| O=C1ON=C(c2ccccc2)/C1=C/c1ccc(-c2ccccc2[N+](=O)[O-])o1 | 5.5 kMESF (inactive) |
| CC(=O)n1cc(C(C[N+](=O)[O-])SCCN)c2ccccc21 (stereo not given) | 3.64 kMESF (inactive) |
| COc1cc(/C=C2/C(=O)c3cccc([N+](=O)[O-])c3C2=O)c(Br)cc1O | 3.18 kMESF (inactive) |
| O=C(/C=C/c1cccc([N+](=O)[O-])c1)c1ccc([N+](=O)[O-])o1 | 3.51 kMESF (inactive) |
| Cc1cccc(Nc2nc(-c3ccccn3)cs2)n1 | 5.01 kMESF (inactive) |
| Cc1cccc(N2C(=O)C(Cl)=C(Nc3c(C)n(C)n(-c4ccccc4)c3=O)C2=O)c1C | 3.31 kMESF (inactive) |
| COC(=O)CCC(=O)OC1(C)C(=O)C2=COC(c3ccc(OC)cc3)=CC2=C(Br)C1=O (stereo not given) | 0.26 kMESF (inactive) |
| Cc1ccc(S(=O)(=O)N2CC(C(=O)O)=CC[C@H]2c2ccc(Cl)cc2)cc1 | 3.69 kMESF (inactive) |
| CC[C@@]1(c2ccccc2OC)ON(c2ccccc2C(F)(F)F)C1=O | 3.17 kMESF (inactive) |
| Oc1c(Br)cc(Br)cc1C=Nc1ccc2c(c1)OCO2 | 5.35 kMESF (inactive) |
| CC1=NNC(=O)/C1=C\c1cn(-c2ccccc2)nc1-c1cccs1 | 3.14 kMESF (inactive) |
| Cc1ccc(N2C(=O)C(Cl)=C(Nc3c(C)n(C)n(-c4ccccc4)c3=O)C2=O)cc1 | 1.97 kMESF (inactive) |
| CCCCc1ccc(/C=C2/C(=O)ON=C2c2ccccc2)s1 | 2.26 kMESF (inactive) |
| O=C1C=CC(=O)N1c1ccc(N2CCCCC2)cc1 | 5.69 kMESF (inactive) |
| Cc1ccc2[nH]c(C)c(/C=C/c3cc[n+](C)cc3)c2c1 | 4.54 kMESF (inactive) |
| O=C1NC(=O)N(c2ccccc2)C(=O)/C1=C/c1ccc(Sc2ccccc2)o1 | 4.03 kMESF (inactive) |
| COC(CNC(=O)c1ccc2c3c(onc13)-c1ccccc1C2=O)OC | -0.77 kMESF (inactive) |
| CCCc1cc(N2CCN(c3ccccn3)CC2)n2nc(C)c(-c3ccccc3)c2n1 | 3.11 kMESF (inactive) |
| CCN1/C(=C/C(C)=C/c2sc3ccccc3[n+]2CC)Sc2ccccc21 | 4.91 kMESF (inactive) |
| Oc1c(I)cc(Cl)c2cccnc12 | 5.67 kMESF (inactive) |
| O=c1oc2ccccc2c(O)c1[C@H]1c2ccc(O)cc2Oc2c1c(=O)oc1ccccc21 | 4.67 kMESF (inactive) |

| SMILES | GFP fluorescence (kMESF), higher = increase |
| --- | --- |
| O=C1C=C(Nc2ccc(Cl)cc2)C(=O)N1c1ccc(Cl)cc1 | 1.97 kMESF (inactive) |
| C=CCn1c(C)c(/C=C/c2cc[n+](C)cc2)c2ccccc21 | 5.92 kMESF (inactive) |
| COc1ccccc1N1C(=O)c2cccc3c(C(=O)O)ccc(c23)C1=O | 3.03 kMESF (inactive) |
| CC[C@]1(c2ccccc2C)ON(c2ccccc2C(F)(F)F)C1=O | 1.97 kMESF (inactive) |
| C=CCOc1ccccc1C(=O)/C=C1/C(=O)Nc2ccccc21 | 3.91 kMESF (inactive) |
| Nc1ccc2ccc3cccc[n+]3c2c1 | 5.03 kMESF (inactive) |
| O=C(OCn1ncc(Br)c(Br)c1=O)c1ccccc1Cl | 4.8 kMESF (inactive) |
| CC(C)Cn1c(=O)c(C(=O)Nc2ccncc2)c(O)c2ccccc21 | 3.98 kMESF (inactive) |
| Cc1cc2ccccn2c1C(=O)c1ccc([N+](=O)[O-])o1 | -12.4 kMESF (inactive) |
| O=S(=O)(/N=C(/Sc1ccccc1)c1ccccc1)c1ccccc1 | 4.43 kMESF (inactive) |
| COc1ccc(OCC(=O)NNC(=S)NC(=O)C2CCCCC2)cc1 | 3.25 kMESF (inactive) |
| COc1ccc([N+](=O)[O-])c(S(=O)(=O)c2ccc(Cl)cc2)n1 | 4.42 kMESF (inactive) |
| O=[N+]([O-])c1ccc(S(=O)(=O)c2ccccc2)nc1 | 5.25 kMESF (inactive) |
| O=C(/C=C/Sc1ncn[nH]1)c1ccc(Cl)cc1 | 4.24 kMESF (inactive) |
| O=C(CCS(=O)(=O)c1ccccc1)Nc1nc(-c2ccccn2)cs1 | 1.34 kMESF (inactive) |
| Cc1ccsc1/C=N/Nc1ncc(Cl)cc1Cl | 5.19 kMESF (inactive) |
| CCOc1ccc(C(Nc2cccnc2)c2cc(Cl)c3cccnc3c2O)cc1 (stereo not given) | 4.24 kMESF (inactive) |
| Cc1cccc(C(=O)NC(=S)NNC(=O)Cc2ccccc2)c1 | 3.56 kMESF (inactive) |
| N/C(=N\OC(=O)c1ccc(Cl)cc1Cl)c1ccccc1 | 3.21 kMESF (inactive) |
| COc1ccc(NC2=C(Cl)C(=O)N(CCc3ccccc3)C2=O)c(OC)c1 | 1.67 kMESF (inactive) |
| N/C(=N\OC(=O)c1cccc(Br)c1)c1ccccc1 | 2.6 kMESF (inactive) |
| O=c1c(-c2ccc(Cl)cc2)[n+]([O-])c2ccccc2n1O | 24.9 kMESF (inactive) |

| SMILES | GFP fluorescence (kMESF), higher = increase |
| --- | --- |
| CC(Oc1ccc(Br)cc1)C(=O)Nc1nc(-c2ccccn2)cs1 (stereo not given) | 4.68 kMESF (inactive) |
| Oc1c(C(Nc2nc3ccccc3s2)c2ccco2)ccc2cccnc12 (stereo not given) | 5.51 kMESF (inactive) |
| O=[N+]([O-])c1cc(O)c2ncccc2c1 | 5.96 kMESF (inactive) |
| O=C(Oc1c(Cl)cc(Cl)c2cccnc12)c1cccc([N+](=O)[O-])c1 | 4.13 kMESF (inactive) |
| Cc1ccc2[nH]cc(/C=C/c3cc[n+](C)cc3)c2c1 | 4.2 kMESF (inactive) |
| N#Cc1cc([N+](=O)[O-])c(-n2nnc3ccccc32)c([N+](=O)[O-])c1 | 3.54 kMESF (inactive) |
| O=C(/C=C/c1ccc(Cl)c([N+](=O)[O-])c1)c1cccnc1 | 3.17 kMESF (inactive) |
| C[n+]1ccc(/C=C/c2c[nH]c3ccccc23)cc1 | 7.26 kMESF (inactive) |
| CCOC(=O)c1cc(-c2ccc(/C=C3/C(=O)NC(=O)C(C#N)=C3C)o2)ccc1Cl | 6.22 kMESF (inactive) |
| Cc1ccc(/C=c2\sc3nc(-c4cccs4)nn3c2=O)o1 | 8.12 kMESF (inactive) |
| Cc1ccc(NC(=O)c2cc(N3C(=O)C=CC3=O)ccc2Cl)cc1C | 5.17 kMESF (inactive) |
| O=[N+]([O-])c1cc(Cl)c2cccnc2c1O | 5.35 kMESF (inactive) |
| O=c1c2cc(Cl)ccc2nc(-c2ccc([N+](=O)[O-])cc2)n1O | 4.58 kMESF (inactive) |
| CN(C)c1ccc(N=Cc2nc(-c3ccccc3)oc2OC(=O)c2cccc(Cl)c2)cc1 | 3.27 kMESF (inactive) |
| COc1cc(C=C2C(=O)c3ccccc3C2=O)cc(OC)c1 | 2.05 kMESF (inactive) |
| COc1cc(C=C2C(=O)c3ccccc3C2=O)cc(OC)c1OC | 2.43 kMESF (inactive) |
| CCOc1ccccc1/C=c1\sc2ncnn2c1=O | 4.47 kMESF (inactive) |
| O=C(NOC(=O)c1ccccc1)c1ccccc1 | 5.42 kMESF (inactive) |
| CCC(=O)Oc1oc(-c2ccccc2)nc1C=Nc1ccc(C)cc1 | 3.2 kMESF (inactive) |
